Assay results from patent publication US20140193827A1 (TEVA PHARMACEUTICAL INDUSTRIES, LTD., priority 2013, published 2014).

Test system: GA-primed murine splenocytes
Assay: Tolerance method for assessing process variability

Substance: glatiramer acetate [GA]
- AVG expression IRGB10 (probe ILMN_2534151): 9.691
- AVG expression LOC624610 (probe ILMN_2537948): 8.96
- AVG expression LOC666559 (probe ILMN_2540103): 10.7199
- AVG expression AUH (probe ILMN_2543417): 8.451
- AVG expression HIPK2 (probe ILMN_2545445): 7.332
- AVG expression GNG12 (probe ILMN_2546272): 9.731
- AVG expression 4930426D05RIK (probe ILMN_2548681): 7.1
- AVG expression A130093I21RIK (probe ILMN_2553041): 7.932
- AVG expression A630006E02RIK (probe ILMN_2560567): 9.937
- AVG expression NDR3 (probe ILMN_2571414): 6.289
- AVG expression GAD1 (probe ILMN_2573826): 6.891
- AVG expression B930094H08R1K (probe ILMN_2578341): 6.497
- AVG expression D530007E13RIK (probe ILMN_2581681): 8.386
- AVG expression IL8RA (probe ILMN_2588216): 6.682
- AVG expression PLTP (probe ILMN_2589401): 7.226
- AVG expression IL27RA (probe ILMN_2591156): 8.583
- AVG expression BC021614 (probe ILMN_2591342): 7.519
- AVG expression QPRT (probe ILMN_2591754): 7.245
- AVG expression genericLYRP1 (probe ILMN_2592486): 7.785
- AVG expression SCG5 (probe ILMN_2592953): 6.961
- AVG expression DOCK10 (probe ILMN_2593143): 11.3
- AVG expression IGTP (probe ILMN_2593554): 12.78
- AVG expression KCNK13 (probe ILMN_2593787): 6.48
- AVG expression NSDHL (probe ILMN_2594521): 8.078
- AVG expression NSDHL (probe ILMN_2594525): 8.365
- AVG expression LOC100046232 (probe ILMN_2595732): 11.55
- AVG expression RGS1 (probe ILMN_2596596): 8.683
- AVG expression SLC44A2 (probe ILMN_2599719): 11.36
- AVG expression MPO (probe ILMN_2600421): 7.594
- AVG expression OVGP1 (probe ILMN_2600928): 6.54
- AVG expression A130092J06RIK (probe ILMN_2601453): 10.81
- AVG expression CREM (probe ILMN_2602899): 7.714
- AVG expression KLF2 (probe ILMN_2604029): 11.34
- AVG expression RANBP10 (probe ILMN_2605453): 9.654
- AVG expression AI646023 (probe ILMN_2605858): 6.049
- AVG expression AGFG1 (probe ILMN_2606072): 9.007
- AVG expression PDLIM4 (probe ILMN_2606162): 9.727
- AVG expression ACOT7 (probe ILMN_2606180): 9.205
- AVG expression CMAH (probe ILMN_2606825): 7.634
- AVG expression CHI3L1 (probe ILMN_2609813): 9.339
- AVG expression IFT172 (probe ILMN_2611450): 8.856
- AVG expression SLC25A19 (probe ILMN_2611532): 9.008
- AVG expression SERPINB6B (probe ILMN_2611755): 8.188
- AVG expression ARHGEF18 (probe ILMN_2612125): 10.09
- AVG expression LSS (probe ILMN_2614161): 9.397
- AVG expression B3GNT8 (probe ILMN_2614889): 8.954
- AVG expression DPP4 (probe ILMN_2615096): 9.69
- AVG expression CHAC1 (probe ILMN_2617468): 8.051
- AVG expression C330008K14RIK (probe ILMN_2618148): 10.14
- AVG expression SLC2A6 (probe ILMN_2618918): 10.76
- AVG expression LGALS1 (probe ILMN_2619107): 10.71
- AVG expression ERAF (probe ILMN_2619200): 8.714
- AVG expression PRNP (probe ILMN_2619316): 9.719
- AVG expression ATF3 (probe ILMN_2619408): 6.791
- AVG expression RGS1 (probe ILMN_2625377): 9.769
- AVG expression ACSS1 (probe ILMN_2628174): 10.26
- AVG expression SOCS2 (probe ILMN_2628178): 9.548
- AVG expression ASAH3L (probe ILMN_2629112): 6.995
- AVG expression CPM (probe ILMN_2629191): 9.17
- AVG expression PPAP2B (probe ILMN_2630993): 7.507
- AVG expression TMEM71 (probe ILMN_2631610): 6.536
- AVG expression CTLA4 (probe ILMN_2631752): 8.62
- AVG expression ACOT7 (probe ILMN_2632264): 11.36
- AVG expression SOCS1 (probe ILMN_2634796): 7.681
- AVG expression IGH-VJ558 (probe ILMN_2635272): 13.22
- AVG expression AXUD1 (probe ILMN_2636403): 10.85
- AVG expression PLA2G12A (probe ILMN_2636536): 9.884
- AVG expression SLAMF7 (probe ILMN_2638491): 8.628
- AVG expression HSPD1 (probe ILMN_2639036): 9.439
- AVG expression AK2 (probe ILMN_2641360): 10.39
- AVG expression GTF2I (probe ILMN_2642462): 11.52
- AVG expression EMP1 (probe ILMN_2642913): 7.96
- AVG expression ASNS (probe ILMN_2643513): 9.742
- AVG expression THY1 (probe ILMN_2644350): 11.24
- AVG expression MVD (probe ILMN_2645275): 9.423
- AVG expression SAMSN1 (probe ILMN_2646322): 11.87
- AVG expression JUN (probe ILMN_2646625): 8.291
- AVG expression CENTD1 (probe ILMN_2646891): 10.77
- AVG expression SIGLECG (probe ILMN_2648454): 9.552
- AVG expression GPNMB (probe ILMN_2648669): 7.401
- AVG expression MAN2A2 (probe ILMN_2650255): 6.819
- AVG expression ARHGAP9 (probe ILMN_2650739): 9.141
- AVG expression SLC12A7 (probe ILMN_2650953): 6.744
- AVG expression genericK1 (probe ILMN_2651886): 11.36
- AVG expression LRG1 (probe ILMN_2652500): 6.12
- AVG expression IFI47 (probe ILMN_2652857): 11.72
- AVG expression SESN1 (probe ILMN_2654074): 10.45
- AVG expression MYO6 (probe ILMN_2656854): 8.468
- AVG expression IFITM3 (probe ILMN_2658501): 11.43
- AVG expression TG (probe ILMN_2658878): 7.479
- AVG expression DGKA (probe ILMN_2658961): 11.07
- AVG expression IL7R (probe ILMN_2659739): 6.443
- AVG expression ACOT7 (probe ILMN_2660182): 8.55
- AVG expression ST6GALNAC4 (probe ILMN_2660837): 8.481
- AVG expression SCML4 (probe ILMN_2661185): 8.584
- AVG expression RAB35 (probe ILMN_2662097): 11.43
- AVG expression LMNA (probe ILMN_2662387): 8.27
- AVG expression SLAMF9 (probe ILMN_2663249): 8.243
- AVG expression EPHX1 (probe ILMN_2664224): 9.837
- AVG expression 3110013H01RIK (probe ILMN_2664726): 8.045
- AVG expression RIN3 (probe ILMN_2665545): 9.015
- AVG expression HEMK1 (probe ILMN_2666272): 9.174
- AVG expression PRG4 (probe ILMN_2668333): 5.989
- AVG expression HP (probe ILMN_2668509): 7.287
- AVG expression HP (probe ILMN_2668510): 7.507
- AVG expression CTSA (probe ILMN_2669714): 9.205
- AVG expression KIF1B (probe ILMN_2670778): 8.422
- AVG expression PFKP (probe ILMN_2673233): 8.097
- AVG expression 2310047A01RIK (probe ILMN_2675922): 7.606
- AVG expression GRIFIN (probe ILMN_2676543): 6.233
- AVG expression RNF144A (probe ILMN_2678127): 7.59
- AVG expression MNS1 (probe ILMN_2678431): 8.22
- AVG expression DUSP10 (probe ILMN_2678724): 8.26
- AVG expression RASGRP2 (probe ILMN_2678726): 6.734
- AVG expression IL7R (probe ILMN_2680827): 8.445
- AVG expression BCL2 (probe ILMN_2682162): 8.675
- AVG expression NALP6 (probe ILMN_2684600): 6.205
- AVG expression HMHA1 (probe ILMN_2685023): 11.42
- AVG expression CCR5 (probe ILMN_2685392): 7.052
- AVG expression CCR5 (probe ILMN_2685393): 7.202
- AVG expression IFNG (probe ILMN_2685712): 11.16
- AVG expression PRM1 (probe ILMN_2687652): 6.849
- AVG expression MCOLN2 (probe ILMN_2689401): 7.5921
- AVG expression PKIB (probe ILMN_2690241): 7.745
- AVG expression JAKMIP1 (probe ILMN_2690460): 9.597
- AVG expression KLHL14 (probe ILMN_2691014): 6.305
- AVG expression 9330186A19RIK (probe ILMN_2692554): 6.749
- AVG expression TGM2 (probe ILMN_2692615): 8.055
- AVG expression ERO1LB (probe ILMN_2692960): 10.32
- AVG expression CCDC125 (probe ILMN_2693679): 7.065
- AVG expression PNPLA7 (probe ILMN_2695047): 7.637
- AVG expression KIFC2 (probe ILMN_2695158): 6.733
- AVG expression PHF11 (probe ILMN_2696491): 9.238
- AVG expression PHF11 (probe ILMN_2696492): 9.454
- AVG expression MSCP (probe ILMN_2696609): 8.264
- AVG expression SLC25A37 (probe ILMN_2696610): 8.278
- AVG expression CD3D (probe ILMN_2697415): 11.45
- AVG expression HIST1H3H (probe ILMN_2698519): 8.014
- AVG expression RGS10 (probe ILMN_2699531): 9.937
- AVG expression ITGAE (probe ILMN_2699898): 7.502
- AVG expression CCND2 (probe ILMN_2700168): 10.82
- AVG expression DENND5B (probe ILMN_2700354): 7.911
- AVG expression IBRDC3 (probe ILMN_2700689): 9.29
- AVG expression LGALS7 (probe ILMN_2703182): 6.931
- AVG expression STAC2 (probe ILMN_2703563): 6.876
- AVG expression FCRLA (probe ILMN_2703829): 11.55
- AVG expression LIMD2 (probe ILMN_2705878): 8.037
- AVG expression SYNGR2 (probe ILMN_2706231): 11.42
- AVG expression SYNGR2 (probe ILMN_2706232): 11.09
- AVG expression LOC100046608 (probe ILMN_2706514): 8.612
- AVG expression GPR83 (probe ILMN_2707941): 9.205
- AVG expression 5100A8 (probe ILMN_2710905): 12.62
- AVG expression IRGM1 (probe ILMN_2711172): 7.157
- AVG expression LOC100047619 (probe ILMN_2711948): 10.95
- AVG expression TIMP2 (probe ILMN_2712867): 6.749
- AVG expression CHI3L3 (probe ILMN_2712986): 7.589
- AVG expression SDC3 (probe ILMN_2715042): 9.146
- AVG expression SLC12A6 (probe ILMN_2716511): 9.952
- AVG expression MAPK11 (probe ILMN_2716622): 8.853
- AVG expression RGL1 (probe ILMN_2717176): 7.561
- AVG expression TCF7 (probe ILMN_2717975): 8.216
- AVG expression CISH (probe ILMN_2718330): 11.35
- AVG expression SLAMF1 (probe ILMN_2721571): 9.069
- AVG expression CD3G (probe ILMN_2722784): 10.75
- AVG expression CCR8 (probe ILMN_2724465): 6.962
- AVG expression MAPK12 (probe ILMN_2724570): 6.86
- AVG expression IL2 (probe ILMN_2725259): 7.49
- AVG expression NSDHL (probe ILMN_2725402): 8.035
- AVG expression CD9 (probe ILMN_2725414): 8.904
- AVG expression SYTL3 (probe ILMN_2725448): 7.03
- AVG expression SERPINA3G (probe ILMN_2725927): 13.9
- AVG expression EN2 (probe ILMN_2726471): 6.583
- AVG expression B4GALNT1 (probe ILMN_2728270): 10.26
- AVG expression 5830431A10R1K (probe ILMN_2729252): 7.881
- AVG expression HIST1H3D (probe ILMN_2729958): 9.844
